Among the data in patent US12195469B2, “Compounds having PDE9A inhibitory activity, and pharmaceutical uses thereof” (KOREA RESEARCH INSTITUTE OF CHEMICAL TECHNOLOGY, priority 2018, dated 2025) are IC50 values, retold here.

Each structure is given as a SMILES string.

This experiment deals with PDE9A (Homo sapiens (Human), UniProt O76083). The experiment in a line: PDE9A inhibition, fluorescence polarization assay (IMAP-FP screening express kit). In kind it is biochemical. The following applies: Fl-cGMP substrate 100 nM, PDE9A 5 ng/ml, 1 hour at room temperature. On the procedure:
The inhibitory activity of the representative compounds according to the present invention against phosphodiesterase 9A was tested based on the polarization assay (IMAP-FP screening express kit) provided by MDS (MDS Analytical Technologies, Sunyvale, CA, USA). As a buffer solution, a reaction solution (a reaction solution containing 0.01% Tween 20 provided by MDS was diluted 5 times, then 5 mM DTT is added) and a polarization detection solution (binding solution A and B provided by MDS were mixed at a ratio of 3:1 and IMAP binding reagent 1/600 was added) were prepared. 100 μM of the substrate (Fl-cGMP substrate; MDS) and 3.6 μg/ml of the enzyme PDE9A (ab54113; abcam) were prepared. 3.6 μg/ml PDE9A and 100 μM substrate were diluted to 20 ng/ml (final reaction concentration: 5 ng/ml) and 400 nM (final reaction concentration: 100 nM), respectively. The buffer solution used for all dilution and preparation processes was 1× reaction solution with 1 mM DTT added, and the polarization detection solution was used to induce polarization at the end.
The prepared samples were dispensed on black microplates (Multiwell 384 well plates, #3573, Corning Life Sciences, Lowell, MA, USA) using a 16-channel pipette (multi 16-channel, Finnpipette, Thermo Scientific, Essex, UK). The total reaction volume per well is 20 μl. At this time, 10 μl of 2% DMSO, 5 μl of substrate solution, and 5 μl of reaction solution were used as a negative control, and 10 μl of 2% DMSO, 5 μl of substrate solution, and 5 μl of PDE9A solution were used as a positive control. As the experimental group, 10 μl of the compound prepared in Example, 5 μl of the substrate solution, and 5 μl of the PDE9A solution were used. After pretreatment between the compound and the enzyme was performed for about 10 minutes before the enzyme-substrate reaction, 5 μl of cGMP was added to induce the enzyme reaction. During the reaction, each compound, enzyme, and substrate occupied 50%, 25%, and 25% of the total volume, respectively, and they were prepared at high concentrations of 2, 4, and 4 times, respectively, immediately before addition. After the enzymatic reaction, it was shaken lightly for 1 minute and the enzyme reaction was induced at room temperature for 1 hour. Then, 60 μl of a polarization detection solution prepared in advance was added to induce polarization.
Nanoparticles composed of trivalent metal ions are mixed in the fluorescence detection solution, which combines with phosphoric acid expose by enzymatic reaction to increase the molecular weight and induce polarization. After leaving for 2 hours at room temperature, the polarization (Fluorescence Polarization, FP) value was measured using a multilabel counter (Envision, PerkinElmer, Turku, Finland) (emission wavelength: P-535 nm, S-535 nm, excitation wavelength: 480 nm), and the result was expressed as an IC50 value, which is the concentration of the compound that inhibited PDE9A by 50% in vitro (Table 2).
For orientation: In fluorescence polarisation assays a small probe gives low polarisation when free and higher when bound to something large.

Sequence of PDE9A (O76083 whole entry): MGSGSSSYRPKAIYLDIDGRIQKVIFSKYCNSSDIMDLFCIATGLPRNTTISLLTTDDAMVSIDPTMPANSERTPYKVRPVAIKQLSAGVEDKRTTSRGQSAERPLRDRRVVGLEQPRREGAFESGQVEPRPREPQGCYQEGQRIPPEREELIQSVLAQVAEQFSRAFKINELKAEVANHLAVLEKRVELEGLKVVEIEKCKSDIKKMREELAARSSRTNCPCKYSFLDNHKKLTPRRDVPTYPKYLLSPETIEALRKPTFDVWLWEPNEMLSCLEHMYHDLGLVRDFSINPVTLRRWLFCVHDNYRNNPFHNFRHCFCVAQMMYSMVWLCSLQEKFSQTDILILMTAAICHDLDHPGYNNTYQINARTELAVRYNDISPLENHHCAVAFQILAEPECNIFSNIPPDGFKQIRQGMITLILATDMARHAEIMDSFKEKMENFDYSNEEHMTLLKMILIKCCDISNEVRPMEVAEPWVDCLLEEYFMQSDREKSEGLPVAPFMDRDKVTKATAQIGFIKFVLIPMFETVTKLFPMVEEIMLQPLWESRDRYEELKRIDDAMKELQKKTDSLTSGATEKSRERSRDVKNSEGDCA

For orientation: IC50 means the concentration at which inhibition is half-maximal. Read a low IC50 as greater potency. `Cc1ccc2oc(CSc3nc4c(cnn4-c4ccccc4)c(=O)[nH]3)nc2c1` [Example 3, 6-(((5-methylbenzo[d]oxazol-2-yl)methyl)thio)-1-phenyl-1,5-dihydro-4H-pyrazolo[3,4-d]pyrimidin-4-one] registered an IC50 of 81 nM.
